In assay [1] the test system is asymmetric di-methyl PABP1 in RKO cells. Nature of the assay: RKO methylation assay, In Cell Western (ICW) for asymmetric di-methyl PABP1. Format: cell-based. Conditions: Cellular potencies, ICW PABP1me2a. The essentials:
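RKO cells treated with compound for 48 h at 37 °C, then fixed, permeabilized and immunostained for asymmetric di-methyl PABP1, with DRAQ5 as DNA stain. Infrared 700/800 nm signal ratio normalized to DMSO and 20 μM reference-compound controls; IC50 from triplicate wells.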

The target of another assay is human CARM1 (PRMT4) (Homo sapiens (Human), UniProt Q86X55). Nature of the assay: CARM1 enzyme assay on peptide substrate (3H-SAM Flashplate). Conditions: Biochemical potencies, read-out: Biochem IC50.
Sequence of human CARM1 (PRMT4) (Q86X55 other isoform, or with tags, fused parts or gaps isoform Q86X55-1): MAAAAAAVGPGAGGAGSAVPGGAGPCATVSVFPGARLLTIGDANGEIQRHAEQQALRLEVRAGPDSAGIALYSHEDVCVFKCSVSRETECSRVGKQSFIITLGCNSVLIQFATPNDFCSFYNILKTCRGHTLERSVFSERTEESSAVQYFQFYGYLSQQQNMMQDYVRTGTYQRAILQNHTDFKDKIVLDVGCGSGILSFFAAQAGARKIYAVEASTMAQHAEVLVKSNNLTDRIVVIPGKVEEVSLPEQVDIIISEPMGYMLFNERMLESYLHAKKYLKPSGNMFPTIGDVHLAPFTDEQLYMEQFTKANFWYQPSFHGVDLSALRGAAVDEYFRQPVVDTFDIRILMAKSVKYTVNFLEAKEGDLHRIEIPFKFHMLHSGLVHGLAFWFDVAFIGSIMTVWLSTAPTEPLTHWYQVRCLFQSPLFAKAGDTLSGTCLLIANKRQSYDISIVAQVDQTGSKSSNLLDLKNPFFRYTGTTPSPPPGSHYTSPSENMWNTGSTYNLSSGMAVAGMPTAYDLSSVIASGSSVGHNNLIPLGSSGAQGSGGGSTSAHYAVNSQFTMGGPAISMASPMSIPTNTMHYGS

The IC50 is the concentration that gives 50% inhibition. Turning to `CNCC(O)COc1cccc(-c2nc(N[C@@H]3CCOC3)c(C)c(-c3ccnnc3)n2)c1` (stereo partly shown) [Example 459-1a], the IC50 lay in the range of 10 to 20 µM in assay [1] (Homo sapiens, RKO) and 0.1 to 1 µM on human CARM1 (PRMT4).
The like results for `CNCC(O)COc1cccc(-c2nc(N3CC[C@H](N(C)C(C)=O)C3)cc(N(C)C3CCOCC3)n2)c1` (stereo partly shown) [Example 547-1a] were, in that order, 10 to 20 µM and 0.1 to 1 µM.
The matching figures for `CNCC(O)COc1cccc(-c2nc(-c3ccncc3)cc(N(C)C3CCN(C(C)=O)CC3)n2)c1` (stereo not shown) [Example 671-1a]: ≥ 20 µM and 0.1 to 1 µM.
For the molecule `CNCC(O)COc1cccc(-c2nc(N3CCN(CC(F)(F)F)[C@@H](C)C3)cc(N(C)C3CCOCC3)n2)c1` (stereo partly shown) [Example 594-1a], the IC50 in assay [1] (Homo sapiens, RKO) lay in the range of 10 to 20 µM; at human CARM1 (PRMT4), 0.1 to 1 µM.
The like results for `CNCC(O)COc1cccc(-c2nc(N[C@H]3CO[C@H]4OCC[C@H]43)c(C)c(N3CCOCC3)n2)c1` (stereo partly shown) [Example 374-1a] were, in that order, 10 to 20 µM and 0.1 to 1 µM.
For the molecule `CNCC(O)COc1cccc(-c2nc(NC3CCOC3)c(C)c(N3CCC(O)(CCO)CC3)n2)c1` (stereo not shown) [Example 399-1a], the concentration for half-maximal inhibition (IC50) in assay [1] (Homo sapiens, RKO) fell in the range of 10 to 20 µM; on human CARM1 (PRMT4), 0.1 to 1 µM.
For `CNCC(O)COc1cccc(-c2nc(Nc3c(C)nn(C)c3C)cc(-c3c(C)noc3C)n2)c1` (stereo not shown) [Example 122-1a], the IC50 in assay [1] (Homo sapiens, RKO) fell in the range of 10 to 20 µM; at human CARM1 (PRMT4) it was 1 to 3 µM.
Regarding `CNCC(O)COc1cccc(-c2nc(-c3c(C)n[nH]c3C)cc(N(C)C3CCOCC3)n2)c1` (stereo not shown) [Example 534-1a], the IC50 was 5 to 10 µM in assay [1] (Homo sapiens, RKO) and 0.1 to 1 µM on human CARM1 (PRMT4).
Turning to `CNCC(O)COc1cccc(-c2nc(N[C@@H]3CC[C@H](C(=O)N4CCOCC4)C3)c(C)c(N3CCOCC3)n2)c1` (stereo partly shown) [Example 681-1a], the IC50 in assay [1] (Homo sapiens, RKO) was ≥ 20 µM; at human CARM1 (PRMT4) it was 1 to 3 µM.
For `CNCC(O)COc1cccc(-c2nc(N[C@@H]3CCOC3)c(C)c(N3CCNC(C(F)(F)F)C3)n2)c1` (stereo partly shown) [Example 428-1a], the IC50 in assay [1] (Homo sapiens, RKO) fell in the range of 10 to 20 µM; on human CARM1 (PRMT4), 0.1 to 1 µM.
As to `CNCC(O)COc1cccc(-c2nc(NC3CCOCC3)cc(-c3c(C)n[nH]c3C)n2)c1` (stereo not shown) [Example 670-1a], the IC50 in assay [1] (Homo sapiens, RKO) is ≥ 20 µM; at human CARM1 (PRMT4), 0.1 to 1 µM.
For `CNCC(O)COc1cccc(-c2nc(N[C@@H]3CC[C@H](C(=O)NC)C3)c(C)c(N3CCOCC3)n2)c1` (stereo partly shown) [Example 680-1a], the half-inhibitory concentration (IC50) in assay [1] (Homo sapiens, RKO) is ≥ 20 µM; at human CARM1 (PRMT4) it was 0.1 to 1 µM.
On to `CNCC(O)COc1cccc(-c2nc(N3CCN(CC(F)(F)F)CC3)cc(N(C)C3CCOCC3)n2)c1` (stereo not shown) [Example 586-1a], for which the IC50 is 10 to 20 µM in assay [1] (Homo sapiens, RKO) and 0.1 to 1 µM at human CARM1 (PRMT4).
As to `CNCC(O)COc1cccc(-c2nc(NCCOC)cc(-c3ccc(C(F)(F)F)nc3)n2)c1` (stereo not shown) [Example 636-1a], the IC50 in assay [1] (Homo sapiens, RKO) is ≥ 20 µM; at human CARM1 (PRMT4) it was 0.1 to 1 µM.
The matching figures for `CNCC(O)COc1cccc(-c2nc(NCCCN3CCCC3=O)cc(-c3cnn(CC(C)C)c3)n2)c1` (stereo not shown) [Example 635-1a]: ≥ 20 µM and 1 to 3 µM.
With `CNCC(O)COc1cccc(-c2nc(N[C@H]3CO[C@H]4OCC[C@H]43)cc(N3CCOCC3)n2)c1` (stereo partly shown) [Example 373-1a], the IC50 in assay [1] (Homo sapiens, RKO) lay in the range of 10 to 20 µM; on human CARM1 (PRMT4), 0.1 to 1 µM.
Turning to `CNCC(O)COc1cccc(-c2nc(N[C@H]3CO[C@H]4OCC[C@H]43)c(C)c(N3CCOCC3)n2)c1` (stereo partly shown) [Example 673-1a], the concentration for half-maximal inhibition (IC50) in assay [1] was 10 to 20 µM; on human CARM1 (PRMT4) it was 0.1 to 1 µM.
As to `CCN(c1nc(-c2cccc(OCC(O)CNC)c2)nc(NC2CCOCC2)c1C)C1CCOCC1` (stereo not shown) [Example 606-1a], the IC50 in assay [1] (Homo sapiens, RKO) fell in the range of 10 to 20 µM; on human CARM1 (PRMT4), 1 to 3 µM.
As for `CNC[C@@H](O)COc1ccc(F)c(-c2nc(-c3c(C)noc3C)c(C)c(-c3c(C)noc3C)n2)c1` [Example 78-3], the IC50 in assay [1] (Homo sapiens, RKO) was ≥ 20 µM; at human CARM1 (PRMT4), 0.1 to 1 µM.
Consider `CNCC(O)COc1cccc(-c2nc(C3CCCC3)cc(C(CCOC)CCOC)n2)c1` (stereo not shown) [Example 650-1a], for which the IC50 is ≥ 20 µM in assay [1] (Homo sapiens, RKO) and 0.1 to 1 µM at human CARM1 (PRMT4).
